Experimental data taken from patent publication US10039747B2, “Tetrahydrocyclopentapyrrole derivatives and a method for preparing the same” (Daewoong Pharmaceutical Co., Ltd., priority 2013, dated 2018).

These compounds were tested against T1, H+/K+-ATPase (Sus scrofa, UniProt P19156) (assay: Inhibition of proton pump (H+/K+-ATPase) activity in hog gastric vesicles). Settings: K+ specific H+/K+-ATPase activity, pH 7.4, 37° C. for 40 minutes, malachite green.
T1 construct: reaction buffer solution (60 mmol/l Tris-HCl buffer solution, pH 7.4) containing hog gastric vesicle; from tissue; host or cells: hog stomach (gastric vesicles, by centrifugation after Rabon et al. 1988)
Assay type: biochemical
Procedure, shortened: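 Hog gastric vesicles in 60 mmol/l Tris-HCl pH 7.4 with compound, started with ATP, 40 min at 37° C. Pi read by malachite green at 570 nm; K+-specific activity taken as difference between +K+ and −K+ activity. IC50 from % inhibition by 4-parameter logistic fit.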

T1 sequence (P19156 2-1034 limits assumed): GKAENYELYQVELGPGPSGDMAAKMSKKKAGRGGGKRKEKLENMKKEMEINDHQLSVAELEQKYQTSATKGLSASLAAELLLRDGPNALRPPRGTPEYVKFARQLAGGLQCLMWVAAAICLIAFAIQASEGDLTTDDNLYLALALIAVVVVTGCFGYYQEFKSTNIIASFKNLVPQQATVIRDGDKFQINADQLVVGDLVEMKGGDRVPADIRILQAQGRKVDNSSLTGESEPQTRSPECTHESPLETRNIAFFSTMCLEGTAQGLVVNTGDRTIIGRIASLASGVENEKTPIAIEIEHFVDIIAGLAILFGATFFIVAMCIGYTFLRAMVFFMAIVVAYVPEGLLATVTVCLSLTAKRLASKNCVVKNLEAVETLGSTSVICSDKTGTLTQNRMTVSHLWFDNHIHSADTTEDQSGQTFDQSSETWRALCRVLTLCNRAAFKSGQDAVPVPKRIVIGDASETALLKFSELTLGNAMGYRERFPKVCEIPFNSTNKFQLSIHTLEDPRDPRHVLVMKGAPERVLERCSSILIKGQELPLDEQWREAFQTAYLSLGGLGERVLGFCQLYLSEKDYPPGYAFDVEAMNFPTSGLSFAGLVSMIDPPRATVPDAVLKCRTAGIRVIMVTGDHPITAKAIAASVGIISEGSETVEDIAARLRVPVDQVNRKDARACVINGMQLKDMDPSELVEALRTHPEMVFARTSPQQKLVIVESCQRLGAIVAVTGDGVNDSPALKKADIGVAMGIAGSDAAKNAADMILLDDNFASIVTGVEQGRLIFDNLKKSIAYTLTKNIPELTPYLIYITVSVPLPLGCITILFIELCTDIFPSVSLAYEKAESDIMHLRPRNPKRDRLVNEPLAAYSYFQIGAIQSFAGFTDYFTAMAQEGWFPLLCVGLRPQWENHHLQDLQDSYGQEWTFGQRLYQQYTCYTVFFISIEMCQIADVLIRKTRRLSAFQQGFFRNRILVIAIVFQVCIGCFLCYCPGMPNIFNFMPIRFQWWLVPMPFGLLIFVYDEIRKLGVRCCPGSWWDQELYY
T1 sequence (P18434 whole entry partner): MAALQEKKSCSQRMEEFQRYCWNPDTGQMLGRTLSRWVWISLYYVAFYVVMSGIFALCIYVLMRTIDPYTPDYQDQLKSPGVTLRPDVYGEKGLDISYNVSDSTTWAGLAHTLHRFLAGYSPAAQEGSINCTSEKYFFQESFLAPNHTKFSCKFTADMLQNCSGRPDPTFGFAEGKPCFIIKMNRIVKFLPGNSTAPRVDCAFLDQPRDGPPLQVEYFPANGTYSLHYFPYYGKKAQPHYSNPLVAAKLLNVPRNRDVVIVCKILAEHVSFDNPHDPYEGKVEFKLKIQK

IC50	Structure (SMILES)
0.34 µM	CNC1CCc2c1cn(S(=O)(=O)c1cccc(Cl)c1)c2-c1ccccc1F (stereo not drawn) [Example 1]
0.31 µM	CNC1CCc2c1cn(S(=O)(=O)c1cccc(F)c1)c2-c1ccc(F)cc1F (stereo not drawn) [Example 113, 1-(2,4-difluorophenyl)-2-((3-fluorophenyl)sulfonyl)-N-methyl-2,4,5,6-tetrahydrocyclopenta[c]pyrrol-4-amine]
1.5 µM	CNC1CCCc2c1cn(S(=O)(=O)c1cccnc1)c2-c1ccccc1F (stereo not drawn) [Example 131, 1-(2-fluorophenyl)-N-methyl-2-(pyridin-3-ylsulfonyl)-4,5,6,7-tetrahydro-2H-isoindole-4-amine]
8 µM	CNC1CCCc2c1cn(S(=O)(=O)c1cccnc1)c2-c1ccccc1C (stereo not drawn) [Example 132, N-methyl-2-(pyridin-3-ylsulfonyl)-1-(o-tolyl)-4,5,6,7-tetrahydro-2H-isoindole-4-amine]
2 µM	CNC1CCCc2c1cn(S(=O)(=O)c1cccnc1)c2-c1ccccc1Cl (stereo not drawn) [Example 133, 1-(2-chlorophenyl)-N-methyl-2-(pyridin-3-ylsulfonyl)-4,5,6,7-tetrahydro-2H-isoindole-4-amine]
19.7 µM	CNC1CCCc2c1cn(S(=O)(=O)c1cccnc1)c2-c1ccc(-c2ccccc2)cc1 (stereo not drawn) [Example 134, 1-([1,1′-biphenyl]-4-yl)-N-methyl-2-(pyridin-3-ylsulfonyl)-4,5,6,7-tetrahydro-2H-isoindole-4-amine]
5 µM	CNC1CCCc2c1cn(S(=O)(=O)c1cccnc1)c2-c1ccc(F)cc1F (stereo not drawn) [Example 135, 1-(2,4-difluorophenyl)-N-methyl-2-(pyridin-3-ylsulfonyl)-4,5,6,7-tetrahydro-2H-isoindole-4-amine]
15 µM	CN(C)C1CCCc2c1cn(S(=O)(=O)c1cccc(F)c1)c2-c1ccccc1F (stereo not drawn) [Example 136, 1-(2-fluorophenyl)-2-((3-fluorophenyl)sulfonyl)-N,N-dimethyl-4,5,6,7-tetrahydro-2H-isoindole-4-amine]
6 µM	Cc1cccc(S(=O)(=O)n2cc3c(c2-c2ccccc2F)CCCC3N(C)C)c1 (stereo not drawn) [Example 137, 1-(2-fluorophenyl)-N,N-dimethyl-2-(m-tolylsulfonyl)-4,5,6,7-tetrahydro-2H-isoindole-4-amine]
7.1 µM	CN(C)C1CCCc2c1cn(S(=O)(=O)c1cccc(Cl)c1)c2-c1ccccc1F (stereo not drawn) [Example 138, 2-((3-chlorophenyl)sulfonyl)-1-(2-fluorophenyl)-N,N-dimethyl-4,5,6,7-tetrahydro-2H-isoindole-4-amine]
9.07 µM	CN(C)C1CCCc2c1cn(S(=O)(=O)c1cccc(C(F)(F)F)c1)c2-c1ccccc1F (stereo not drawn) [Example 139, 1-(2-fluorophenyl)-N,N-dimethyl-2-((3-(trifluoromethyl)phenyl)sulfonyl)-4,5,6,7-tetrahydro-2H-isoindole-4-amine]
7 µM	COc1cccc(S(=O)(=O)n2cc3c(c2-c2ccccc2F)CCCC3N(C)C)c1 (stereo not drawn) [Example 140, 1-(2-fluorophenyl)-2-((3-methoxyphenyl)sulfonyl)-N,N-dimethyl-4,5,6,7-tetrahydro-2H-isoindole-4-amine]
10.6 µM	CN(C)C1CCCc2c1cn(S(=O)(=O)c1cccc(OC(F)(F)F)c1)c2-c1ccccc1F (stereo not drawn) [Example 141, 1-(2-fluorophenyl)-N,N-dimethyl-2-((3-(trifluoromethoxy)phenyl)sulfonyl)-4,5,6,7-tetrahydro-2H-isoindole-4-amine]
8 µM	CN(C)C1CCCc2c1cn(S(=O)(=O)c1cccc(OC(F)F)c1)c2-c1ccccc1F (stereo not drawn) [Example 142, 2-((3-(difluoromethoxy)phenyl)sulfonyl)-1-(2-fluorophenyl)-N,N-dimethyl-4,5,6,7-tetrahydro-2H-isoindole-4-amine]
5 µM	CN(C)c1cccc(S(=O)(=O)n2cc3c(c2-c2ccccc2F)CCCC3N(C)C)c1 (stereo not drawn) [Example 143, 2-((3-(dimethylamino)phenyl)sulfonyl)-1-(2-fluorophenyl)-N,N-dimethyl-4,5,6,7-tetrahydro-2H-isoindole-4-amine]
8 µM	CN(C)C1CCCc2c1cn(S(=O)(=O)c1cccnc1)c2-c1ccccc1F (stereo not drawn) [Example 144, 1-(2-fluorophenyl)-N,N-dimethyl-2-(pyridin-3-ylsulfonyl)-4,5,6,7-tetrahydro-2H-isoindole-4-amine]
2.2 µM	CNC1CCCCc2c1cn(S(=O)(=O)c1cccc(Cl)c1)c2-c1ccccc1F (stereo not drawn) [Example 145, 2-((3-chlorophenyl)sulfonyl)-1-(2-fluorophenyl)-N-methyl-2,4,5,6,7,8-hexahydrocyclohepta[c]pyrrol-4-amine]
4.5 µM	CNC1CCCCc2c1cn(S(=O)(=O)c1cccnc1)c2-c1ccccc1F (stereo not drawn) [Example 146, 1-(2-fluorophenyl)-N-methyl-2-(pyridin-3-ylsulfonyl)-2,4,5,6,7,8-hexahydrocyclohepta[c]pyrrol-4-amine]
7.04 µM	CCNC1CCCCc2c1cn(S(=O)(=O)c1cccc(Cl)c1)c2-c1ccccc1F (stereo not drawn) [Example 147, 2-((3-chlorophenyl)sulfonyl)-N-ethyl-1-(2-fluorophenyl)-2,4,5,6,7,8-hexahydrocyclohepta[c]pyrrol-4-amine]

The compounds below were run on basal gastric acid secretion in pylorus-ligated rat (assay: Inhibition of basal gastric acid secretion in pylorus-ligated rat (Shay's rat model)). Settings: total acid output, male SD rats, 3 mg/kg into the caudal vein, 5 hours after pylorus ligation.
Assay type: in vivo
Protocol: 3) Effect of Inhibiting Basal Gastric Acid Secretion in Pylorus-Ligated Rat
The measurement of effect of inhibiting basal gastric acid secretion by the compound of the present invention was conducted according to shay's rat model (Shay, H., et al., 1945, gastroenterology, 5, p 43-61). Male Sprague Dawley (SD) rats (body weight 180-220 g) were divided into X groups (n=5), and fasted while feeding only water for 18 hours. Under isoflurane anesthesia, incision of abdominal cavity of rat was made to ligate pylorus, and, immediately after the ligation, to the control groups, only an aqueous solution of 10% ethanol, 20% polyethyleneglycol (PEG) 400 and 10% Cremophor was administered into the caudal vein, and to the other groups, a test compound suspended in an aqueous solution of 10% ethanol, 20% polyethyleneglycol 400, 10% Cremophor was administered into the caudal vein at a dose of 3 mg/kg/2 ml. […] The amount and the pH of the obtained gastric juice were measured, the acidity of gastric juice was measured with 0.1 N-NaOH volume (ueq/ml) required for automatic titration of gastric juice to pH 7.0, and total acid output was calculated by multiplying the acidity of gastric juice and the amount of gastric juice. % Inhibition activity of test compound=(total acid secretion of control group−total acid secretion of the group treated with test compound)/total acid secretion of control group×100

Structure (SMILES)	% inhibition activity
CNC1CCc2c1cn(S(=O)(=O)c1cccc(Cl)c1)c2-c1ccccc1F (stereo not drawn) [Example 1]	92%
CNC1CCc2c1cn(S(=O)(=O)c1cccc(F)c1)c2-c1ccc(F)cc1F (stereo not drawn) [Example 113, 1-(2,4-difluorophenyl)-2-((3-fluorophenyl)sulfonyl)-N-methyl-2,4,5,6-tetrahydrocyclopenta[c]pyrrol-4-amine]	52%
